Reference: article PMC4734667 (PLoS ONE, 2016)
Where “and” joins values, the source holds several entries; their conditions need not be identical. Equal entries are not always repeated.

How the values were obtained:
NMDA receptor = NMDA receptor (Rattus norvegicus, UniProt P35439+Q00959); assay: NMDA receptor-mediated fEPSPs in rat hippocampal slices (CA1, MEA); assay type: cell-based; details: 30 μM D-AP5
From the text: Multi-electrode arrays (MEA) technology was used in the recording of hippocampal slices from 3 to 4 week-old male and female Sprague- Dawley rats (Elevage Janvier, Le Genest St Isle, France).
The rats were sacrificed by fast decapitation, without previous anesthesia. The brain was quickly removed and soaked in ice-cold oxygenated buffer with the following composition in mM: KCl 2, NaH2PO4 1.2, MgCl2 7, CaCl2 0.5, NaHCO3 26, glucose 11, and saccharose 250. […] Slice were placed in the center of a 3D-MEA to cover the electrode field (1.4 mm^2) and then immobilized with a netting ballast. […] NBQX (10 μM) was added to inhibit AMPA receptors. The bath was ground connected with a 1 M NaCl-Agar bridge.
All data were recorded with a MEA set-up from Multi Channel Systems MCS GmbH (Reutlingen, Germany) composed of a 4-channel stimulus generator and a 60-channel amplifier head-stage connected to a 60-channel A/D card. […]
Following visual observation through a CCD camera, one of the electrodes identified in the CA3 field (at CA3/CA1 border) was disconnected from its amplifier and used to stimulate Schaeffer collaterals. […] Simultaneous evoked field potentials were recorded from 3 to 6 electrodes in the CA1 stratum radiatum region, corresponding to the physiological propagation of the stimulus along the Schaffer collateral pathway. […]

[1] = tested on: NMDA receptor (NMDA + glycine evoked currents); assay: Whole-cell manual patch clamp of rat cortical neurons in primary culture; assay type: cell-based; details: 10 μM compound; NMDA 100 μM + glycine 10 μM; +40 mV; mean ± SEM
From the text: Cortical neurons isolated from E18 rat embryos and cultured for two weeks were examined in whole-cell manual patch clamp experiments.
Cryopreserved E-18 rat cortical neurons (GIBCO A10840-02) were purchased from Life Technologies Italia (Monza, Italy).
Cortical neurons were thawed and plated at 5x10^4 or 10x10^4 cells/well in 35 x 100 mm tissue culture dishes containing poly-D-lysine treated glass coverslips, and maintained in the media and conditions recommended by the manufacturer for 13–15 days. […] Glycine (10 μM) was added in the extracellular solution or in the NMDA solution. Cells were patch clamped in the whole-cell configuration with a holding potential of -70 mV stepping once every minute to +20 or +40 mV for 10 s. Starting 1.5 s after each voltage step, 100 μM NMDA plus 10 μM glycine was applied using rapid local perfusion (RSC-200, Bio-Logic Science Instruments, Claix, France). Currents were evaluated at peak during the NMDA application, and current inhibition was computed using Prism software (GraphPad) once steady state was achieved.

Sequence of NMDA receptor (Q00959 23-1464, other chains not shown): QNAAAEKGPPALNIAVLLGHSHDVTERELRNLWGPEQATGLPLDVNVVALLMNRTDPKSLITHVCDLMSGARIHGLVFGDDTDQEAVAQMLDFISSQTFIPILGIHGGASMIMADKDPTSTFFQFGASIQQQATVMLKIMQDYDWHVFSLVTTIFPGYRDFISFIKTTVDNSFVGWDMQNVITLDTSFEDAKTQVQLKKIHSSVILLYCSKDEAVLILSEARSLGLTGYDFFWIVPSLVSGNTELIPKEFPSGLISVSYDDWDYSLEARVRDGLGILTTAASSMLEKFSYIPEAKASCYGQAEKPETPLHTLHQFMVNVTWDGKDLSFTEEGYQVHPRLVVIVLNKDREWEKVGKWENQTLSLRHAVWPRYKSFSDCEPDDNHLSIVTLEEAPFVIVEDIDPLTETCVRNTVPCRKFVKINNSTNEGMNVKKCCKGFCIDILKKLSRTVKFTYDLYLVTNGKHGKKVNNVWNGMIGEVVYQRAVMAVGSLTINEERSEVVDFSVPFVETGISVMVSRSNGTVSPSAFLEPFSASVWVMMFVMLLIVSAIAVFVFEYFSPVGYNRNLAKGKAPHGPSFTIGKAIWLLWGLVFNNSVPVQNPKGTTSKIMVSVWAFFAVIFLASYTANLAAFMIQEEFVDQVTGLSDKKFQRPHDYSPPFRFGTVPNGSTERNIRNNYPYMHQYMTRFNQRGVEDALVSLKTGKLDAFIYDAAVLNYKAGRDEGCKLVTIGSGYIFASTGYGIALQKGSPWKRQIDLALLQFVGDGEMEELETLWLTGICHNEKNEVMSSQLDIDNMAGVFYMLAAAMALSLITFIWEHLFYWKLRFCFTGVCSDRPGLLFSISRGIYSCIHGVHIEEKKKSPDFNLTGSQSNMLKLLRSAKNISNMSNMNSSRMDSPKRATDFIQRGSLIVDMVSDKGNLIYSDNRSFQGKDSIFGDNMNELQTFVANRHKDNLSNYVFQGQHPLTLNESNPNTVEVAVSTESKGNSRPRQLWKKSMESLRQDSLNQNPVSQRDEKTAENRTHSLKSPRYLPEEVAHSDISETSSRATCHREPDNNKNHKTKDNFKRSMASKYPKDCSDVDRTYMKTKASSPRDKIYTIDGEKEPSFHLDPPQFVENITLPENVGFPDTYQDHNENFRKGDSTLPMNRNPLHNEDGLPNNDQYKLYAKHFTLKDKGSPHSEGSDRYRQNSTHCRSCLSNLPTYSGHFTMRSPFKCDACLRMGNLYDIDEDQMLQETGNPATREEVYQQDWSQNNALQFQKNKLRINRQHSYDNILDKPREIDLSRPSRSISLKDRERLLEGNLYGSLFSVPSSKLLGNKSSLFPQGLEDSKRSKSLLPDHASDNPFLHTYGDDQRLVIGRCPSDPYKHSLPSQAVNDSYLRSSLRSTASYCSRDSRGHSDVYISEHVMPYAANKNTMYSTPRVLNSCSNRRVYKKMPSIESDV

Compound | block of fEPSPs by D-AP5 at the conclusion of each experiment (NMDA receptor) | block of NMDA + glycine evoked currents in rat cortical neurons [1]
NC(CCCP(=O)(O)O)C(=O)O [D-AP5] | completely blocked | 
Ro 25–6981 |  | 72 ± 5% and ~ 70%
